# Read-outs that look alike come from different tables or passages of the source.
# T1: PbdA (Rhodococcus jostii, UniProt Q0SCI3)
# T1 sequence (Q0SCI3 1-400): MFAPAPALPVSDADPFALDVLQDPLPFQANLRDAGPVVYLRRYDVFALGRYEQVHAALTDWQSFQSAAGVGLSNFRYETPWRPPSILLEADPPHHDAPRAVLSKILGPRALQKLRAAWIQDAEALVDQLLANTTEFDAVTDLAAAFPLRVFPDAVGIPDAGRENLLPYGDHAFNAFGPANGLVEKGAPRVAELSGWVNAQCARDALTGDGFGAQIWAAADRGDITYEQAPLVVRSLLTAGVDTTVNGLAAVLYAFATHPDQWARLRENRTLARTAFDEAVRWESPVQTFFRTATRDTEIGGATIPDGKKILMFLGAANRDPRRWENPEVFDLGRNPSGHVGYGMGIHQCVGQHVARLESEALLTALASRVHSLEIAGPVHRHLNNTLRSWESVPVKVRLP
# Experiments:
# PbdA [1] = biological target: T1, PbdA; conditions: for NADH depletion rate / Rate of Aromatic turnover / Coupling: WT PbdAB; for NADH depletion rate: air-saturated MOPS (I = 0.1 M); for Rate of Aromatic turnover: appearance of O-demethylated product (disappearance of p-EB); for Coupling: ratio of aromatic turnover rate to NADH oxidation rate
# Procedure: We then measured coupling under optimum conditions for other substrates. […] Finally, we measured the apparent steady-state kinetic parameters of the PbdA reaction under conditions of maximal coupling (Fig. S4).
# (§1) For activity measurements 0.25 to 1 μM of PbdA and PbdB were combined in a 200 μl cuvette in 20 mM Mops, pH 7.2 with substrate diluted in the same buffer. NADH was added to 350 μM to initiate the reaction. For HPLC analysis, enzymatic reactions were acidified by adding acetic acid to 10% final concentration, centrifuged (16,000×g for 10 min), and filtered through a 0.2 μm polytetrafluoroethylene membrane. Samples were run over a Luna 5 μm C18(2) 100 Å 150 × 3 mm column (Phenomenex) at 0.7 ml min^−1 by a Waters 2695 separation HPLC module. Samples were eluted with a 16.8 ml linear gradient from 1% methanol plus 0.1% formic acid in water to 100% methanol plus 0.1% formic acid and monitored at 280 nm with a Waters 2996 photodiode array detector. Concentrations were determined by interpolation on a standard curve of 0 to 1 mM of authentic standard. NADH concentration was measured by absorbance at 340 nm, ε = 6.22 mM^-1 cm^-1. Coupling was calculated from the ratio of rate of aromatic turnover, as determined by HPLC, and the rate of NADH oxidation, determined spectroscopically. Buffer ionic strength was adjusted by addition of NaCl, as appropriate. Apparent steady-state kinetic parameters were calculated by fitting Michaelis–Menten equations to initial velocity of reactions at various concentrations of aromatic substrate (LEONORA).
# PbdA [2] = biological target: T1, PbdA; test: Substrate binding to PbdA (WT) by type I spectral shift titration; parameters: hexaHis (N, cleaved yes); made in house; host or cells: PbdA: E. coli BL-21 λ (DE3); PbdB: Rhodococcus jostii RHA1; conditions: for %High-spin (percent of heme iron in high-spin state): on substrate binding
# Procedure: The affinity of PbdA for various LDACs was measured by the type I spectral shift upon titration of aromatic compound (Fig. 2). This shift occurs as the compound displaces a water coordinated to the heme iron, initiating a spin state transition in the latter from a low spin, hexacoordinate, to a high spin, pentacoordinate form.
# Figure 2 Substrate binding of PbdA. A, difference spectra of PbdA titrated with 1 to 50 μM p-MBA from the substrate-free enzyme. Darker colors indicate higher concentration of p-MBA. Spectra were collected after each addition of substrate to 1 μM enzyme in 20 mM Mops, I = 0.1 M, pH 7.2. B, binding isotherm of PbdA and p-MBA. The fitted curve represents a simple hyperbola. p-MBA, para-methoxybenzoate.
# (§2) UV-visible spectroscopy was conducted with a Cary 60 spectrophotometer equipped with a thermostatted cuvette holder at 25 °C. Scans of purified proteins diluted in 20 mM Mops, I = 0.1 M, pH 7.2 were taken between 250 and 700 nm. Heme concentration was calculated as described previously ([35]). Carbon monoxide binding was determined by reduction of PbdA diluted in 20 mM Mops, I = 0.1 M, pH 7.2 as above by a few grains of […]. CO was bubbled into the reduced enzyme for approximately 60 s at a rate of one bubble per second. Dissociation constants (Kd) were determined by titration of ligands diluted into enzyme buffer from 1 M stocks prepared in dimethyl sulfoxide into PbdA diluted in 20 mM Mops, I = 0.1 M, pH 7.2. Spectra take upon addition of substrate were subtracted from the spectrum of the enzyme, and peak-to-trough distance was plotted by ligand concentration. Kd values were determined by fitting a hyperbolic equation to the data as described previously ([23], [36]). The proportion of high-spin heme iron was determined using the approximate peak-to-trough extinction coefficient (ε ≈ 100 mM^−1 cm^−1) ([36]).
# CYP199A2 = test system: CYP199A2; parameters: method as in PMID 20024082; conditions: cited from earlier work
# RHA1 = test: Growth of RHA1 on p-EB; assay type: cell-based, Rhodococcus jostii RHA1; conditions: M9G with up to 5 mM p-EB; OD600 after 48 hours
# Procedure: RHA1 was grown in M9 media supplemented with a mixture trace metals […]) ([37]) and growth substrate. Growth substrates were solubilized in dimethyl sulfoxide and added to the media. For the growth on p-EB experiment, RHA1 was grown in 1 ml […] supplemented with 5 mM benzoate for 1 day shaking at 30 °C. The cells were spun harvested and washed twice with […] and added to 3 ml […] containing p-EB or benzoate at a final OD600 of 0.05. OD600 of 150 μl culture in a 96-well plate was measured by a TECAN Spark microplate reader. […] When OD600 reached 0.6, cells were harvested, washed twice in […] and suspended in 50 ml of […] 1 mM p-EB. After 4 h of incubation, cell supernatant was collected for LC-MS analysis. Figure S6: Growth of RHA1 on p-EB. Growth of WT in […] supplemented with up to 5 mM of p-EB or 5 mM benzoate. OD600 was measured after 48 hours incubation.
# CYP199A4 = test system: CYP199A4; parameters: method as in PMID 26969786; conditions: cited from earlier work
# PbdA S237A [3] = biological target: T2, PbdA S237A (Rhodococcus jostii, UniProt Q0SCI3, S235A); test: Substrate binding to PbdA S237A variant by spectral titration; parameters: species or system Rhodococcus jostii RHA1
# T2 construct: hexaHis (N, cleaved yes); made in house; host or cells: PbdA variant: E. coli BL-21 λ (DE3); PbdB: Rhodococcus jostii RHA1
# T2 sequence (Q0SCI3 entry or part of it S235A): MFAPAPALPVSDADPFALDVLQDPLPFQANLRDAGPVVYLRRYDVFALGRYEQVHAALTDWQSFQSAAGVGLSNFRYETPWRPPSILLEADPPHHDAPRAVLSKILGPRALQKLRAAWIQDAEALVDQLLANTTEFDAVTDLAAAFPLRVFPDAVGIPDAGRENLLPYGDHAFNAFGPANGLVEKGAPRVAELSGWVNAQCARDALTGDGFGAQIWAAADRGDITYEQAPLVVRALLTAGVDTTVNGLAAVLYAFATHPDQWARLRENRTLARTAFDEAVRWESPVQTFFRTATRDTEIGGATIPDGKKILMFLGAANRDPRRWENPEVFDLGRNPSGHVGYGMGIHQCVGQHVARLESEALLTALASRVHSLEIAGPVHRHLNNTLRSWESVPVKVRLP
# Procedure: as §2
# PbdA S87A [4] = biological target: T3, PbdA S87A (Rhodococcus jostii, UniProt Q0SCI3, S85A); test: Substrate binding to PbdA S87A variant by spectral titration; parameters: species or system Rhodococcus jostii RHA1
# T3 construct: hexaHis (N, cleaved yes); made in house; host or cells: PbdA variant: E. coli BL-21 λ (DE3); PbdB: Rhodococcus jostii RHA1
# T3 sequence (Q0SCI3 entry or part of it S85A): as the sequence (Q0SCI3 entry or part of it S235A) above, with S85A, A235S counted along it
# Procedure: as §2
# PbdA S237A [5] = biological target: T2, PbdA S237A; test: Activity and coupling assay of PbdA S237A variant with PbdB; assay type: biochemical, Rhodococcus jostii RHA1; conditions: for NADH depletion rate: air-saturated MOPS (I = 0.1 M), pH 7.2, 25 °C
# Procedure: as §1
# (§3) ^aExperiments were performed using air-saturated MOPS (I = 0.1 M), pH 7.2, at 25 °C. The rate of aromatic substrate turnover was based on the appearance of O-demethylated product. Standard deviation is shown in parentheses.
# PbdA S87A/S237A [6] = biological target: T4, PbdA S87A/S237A (Rhodococcus jostii, UniProt Q0SCI3, S235A/S85A); test: Activity and coupling assay of PbdA S87A/S237A variant with PbdB; assay type: biochemical, Rhodococcus jostii RHA1; conditions: for NADH depletion rate: air-saturated MOPS (I = 0.1 M), pH 7.2, 25 °C
# T4 construct: hexaHis (N, cleaved yes); made in house; host or cells: PbdA variant: E. coli BL-21 λ (DE3); PbdB: Rhodococcus jostii RHA1
# T4 sequence (Q0SCI3 entry or part of it S85A/S235A): as the sequence (Q0SCI3 entry or part of it S235A) above, with S85A counted along it
# Procedure: as §1, §3
# PbdA S87A/S237A [7] = biological target: T4, PbdA S87A/S237A; test: Substrate binding to PbdA S87A/S237A variant by spectral titration; parameters: species or system Rhodococcus jostii RHA1
# Procedure: as §2
# PbdA R84M [8] = biological target: T5, PbdA R84M (Rhodococcus jostii, UniProt Q0SCI3, R82M); test: Substrate binding to PbdA R84M variant by spectral titration; parameters: species or system Rhodococcus jostii RHA1
# T5 construct: hexaHis (N, cleaved yes); made in house; host or cells: PbdA variant: E. coli BL-21 λ (DE3); PbdB: Rhodococcus jostii RHA1
# T5 sequence (Q0SCI3 entry or part of it R82M): as the sequence (Q0SCI3 entry or part of it S235A) above, with R82M, A235S counted along it
# Procedure: as §2
# PbdA S87A [9] = biological target: T3, PbdA S87A; test: Activity and coupling assay of PbdA S87A variant with PbdB; assay type: biochemical, Rhodococcus jostii RHA1; conditions: for NADH depletion rate: air-saturated MOPS (I = 0.1 M), pH 7.2, 25 °C
# Procedure: as §1, §3
# PbdA R84M [10] = biological target: T5, PbdA R84M; test: Activity and coupling assay of PbdA R84M variant with PbdB; assay type: biochemical, Rhodococcus jostii RHA1; conditions: air-saturated MOPS (I = 0.1 M), pH 7.2, 25 °C
# Procedure: as §1, §3
# [11] = substrate: COc1ccc(C(=O)O)cc1O; test: purified protein, by the assay type; conditions: other: WT PbdA with PbdB, air-saturated Mops (I = 0.1 M), pH 7.2, 25 °C, SD in parentheses
# [12] = pH 7.2, 25 °C, SD in parentheses
# [13] = WT PbdA, 20 mM Mops, I = 0.1 M, pH 7.2, 25 °C, SD in parentheses, read-out: Kd
# [14] = appearance of O-demethylated product
Molecule,NADH depletion rate (PbdA [1]; [12]),Rate of Aromatic turnover (PbdA [1]; SD in parentheses),Coupling (PbdA [1]),Kd (PbdA [2]; [13]) [µM],%High-spin (percent of heme iron in high-spin state) (PbdA [2]; WT PbdA) [%],Kd (PbdA [2]) [µM],O-demethylation rate relative to that of p-MBA (CYP199A4) [%],Kd (PbdA S237A [3]) [µM],Kd (PbdA S87A [4]) [µM],NADH depletion rate (PbdA S237A [5]),NADH depletion rate (PbdA S87A/S237A [6]),Kd (PbdA S87A/S237A [7]) [µM],Kd (PbdA R84M [8]) [µM],NADH depletion rate (PbdA S87A [9]),NADH depletion rate (PbdA R84M [10]),also measured
"COc1ccc(C(=O)O)cc1O [Isovanillate, isovanillate]",2200 (200) U mg P450^-1,1600 (100) U mg P450^-1,75.3 (0.1) %,90,94,,,,,,,,,,,Coupling (PbdA [1]; listed as isovanillate): approximately 75%
"COc1ccc(C(=O)O)cc1OC [Veratrate, veratrate]",2830 (50) U mg P450^-1,2030 (60) U mg P450^-1,72 (3) %,,84,18,,,,,,,,,,Coupling (PbdA [1]; listed as veratrate): approximately 75%; Turnover of substrate (CYP199A2): did not detectibly turn over
"CCc1ccc(C(=O)O)cc1 [p-EB, p-ethylbenzoate]",830 (80) U mg P450^-1,900 (100) U mg P450^-1,110 (7) %,6,72,,,,,,,,,,,"Growth of RHA1 on the compound as substrate (RHA1): did not grow; kcat (apparent) (PbdA [1]; WT PbdA with PbdB, air-saturated Mops (I = 0.1 M), pH 7.2, 25 °C, SD in parentheses): 0.14 (0.01) s^−1; Km (PbdA [1]; read-out: KM (apparent), WT PbdA with PbdB, air-saturated Mops (I = 0.1 M), pH 7.2, 25 °C, SD in parentheses): 12 µM"
"COc1ccc(C(C)=O)cc1 [p-MAP, p-methoxyacetophenone]",117 (6) U mg P450^-1,did not detectably O-demethylate,,37,2.8,,0.25,12,14,220 (6) U mg P450^-1,160 (30) U mg P450^-1,8,8,265 (7) U mg P450^-1,170 (30) U mg P450^-1,
"COc1ccc(C=O)cc1 [p-MBAL, p-methoxybenzaldehyde]",140 (30) U mg P450^-1,did not detectably O-demethylate,,,7.9,11,0.1,12,16,300 (50) U mg P450^-1,200 (4) U mg P450^-1,8,7,290 (20) U mg P450^-1,170 (10) U mg P450^-1,Coupling (PbdA S237A [5]): 9 (3) %; Specific activity (PbdA S237A [5]; O-demethylation): 27 (2) U μg P450^-1; Rate of Aromatic turnover (PbdA S237A [5]; [14]): 30 (3) U mg P450^-1; Coupling (PbdA S87A/S237A [6]): 90 (20) %; Specific activity (PbdA S87A/S237A [6]; O-demethylation): 180 (20) U μg P450^-1; Rate of Aromatic turnover (PbdA S87A/S237A [6]; [14]): 180 (40) U mg P450^-1; Coupling (PbdA S87A [9]): 27 (7) %; Specific activity (PbdA S87A [9]; O-demethylation): 80 (30) U μg P450^-1; Rate of Aromatic turnover (PbdA S87A [9]; [14]): 80 (30) U mg P450^-1
PbdA (Rhodococcus jostii RHA1) (protein) MFAPAPALPVSDADPFALDVLQDPLPFQANLRDAGPVVYLRRYDVFALGRYEQVHAALTDWQSFQSAAGVGLSNFRYETPWRPPSILLEADPPHHDAPRAVLSKILGPRALQKLRAAWIQDAEALVDQLLANTTEFDAVTDLAAAFPLRVFPDAVGIPDAGRENLLPYGDHAFNAFGPANGLVEKGAPRVAELSGWVNAQCARDALTGDGFGAQIWAAADRGDITYEQAPLVVRSLLTAGVDTTVNGLAAVLYAFATHPDQWARLRENRTLARTAFDEAVRWESPVQTFFRTATRDTEIGGATIPDGKKILMFLGAANRDPRRWENPEVFDLGRNPSGHVGYGMGIHQCVGQHVARLESEALLTALASRVHSLEIAGPVHRHLNNTLRSWESVPVKVRLP,,,,,,,,,,,,,,,,Km [11]: 30 (10) μM; kcat [11]: 0.15 s⁻¹; kcat/Km [11]: 5000 M⁻¹ s⁻¹
